Consider four compounds from article PMC6053504, “Inhibitory Role of the Mud Crab Short Neuropeptide F in Vitellogenesis and Oocyte Maturation via Autocrine/Paracrine Signaling” (Frontiers in Endocrinology, 2018).

Where no end group is shown, it is not given here.

For one assay, the system named is denuded oocytes. More on the design: method as in 2 sources, one per row (each row's own in cited_ref): ref 76 = [76]; PMID 20382141; doi:10.1016/j.ydbio.2010.03.027; 76. Pang Y Thomas P . Role of G protein-coupled estrogen receptor 1, GPER, in inhibition of oocyte maturation by endogenous estrogens in zebrafish . Dev Biol. ( 2010 ) 342 : 194 – 206 . 10.1016/j.ydbi ||| ref 77 = [77]; PMID 21636738; doi:10.1095/biolreprod.111.091884; 77. Zhou R Tsang AH Lau SW Ge W . Pituitary adenylate cyclase-activating polypeptide (PACAP) and its receptors in the zebrafish ovary: evidence for potentially dual roles of pacap in controlling final. To be noted: zebrafish, via GPER; cited from earlier work.

The next assay addresses T1, Sp-sNPFR (Scylla paramamosain, UniProt A0A345ZFF5).
T1 sequence (A0A345ZFF5 1-458): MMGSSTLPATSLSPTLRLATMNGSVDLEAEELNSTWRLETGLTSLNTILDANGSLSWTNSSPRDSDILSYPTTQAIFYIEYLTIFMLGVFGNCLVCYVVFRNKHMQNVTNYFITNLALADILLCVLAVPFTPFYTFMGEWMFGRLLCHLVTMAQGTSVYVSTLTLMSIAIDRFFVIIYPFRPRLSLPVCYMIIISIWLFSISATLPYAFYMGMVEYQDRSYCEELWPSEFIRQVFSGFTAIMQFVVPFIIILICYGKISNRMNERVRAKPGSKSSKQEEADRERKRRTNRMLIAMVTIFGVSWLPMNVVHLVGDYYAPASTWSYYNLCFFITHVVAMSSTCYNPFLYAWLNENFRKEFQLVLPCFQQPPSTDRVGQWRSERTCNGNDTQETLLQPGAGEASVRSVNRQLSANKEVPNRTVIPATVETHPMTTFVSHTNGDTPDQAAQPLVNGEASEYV
In words: Ligand-receptor activation of signaling, dual-luciferase (pCRE-luc) reporter in HEK293T. To be noted: HEK293T transiently co-transfected with Sp-sNPFR/pEGFP-N1, pCRE-luc, pRL-TK; incubation 6 h; dual-luciferase read-out (Figure 3B legend: concentration of cAMP determined); nonlinear curve fitting; mean ± SD, three biological replicates. Type of assay: cell-based. The method, then: Human embryonic kidney cell lines (HEK293T) were maintained in high glucose DMEM (Hyclone) supplemented with 10% fetal bovine serum (Gibco), 100 U/mL penicillin and 100 μg/mL streptomycin (Hyclone) at 37°C in a humidified incubator (Thermo) containing 5% CO2. Cells were seeded overnight in 6-well plates and transiently co-transfected with 1 μg of the Sp-sNPFR/pEGFP-N1 plasmid, 0.8 μg of the reporter gene pCRE-luc, and 0.4 μg of internal control gene pRL-TK using 5 μL Lipofectamine 2000 (Invitrogen) reagent following the manufacturer's protocols. Empty pEGFP-N1 plasmid was used for mock transfection.
HEK293T transiently co-transfected with Sp-sNPFR/pEGFP-N1 and dual-luciferase reporter system vectors were grown to 90% confluency in a 24-well plate. Cells were first treated with synthetic Sp-sNPF peptide mixture and the mixture containing 9 synthetic FLPs (GL Biochem, Table 2) at 1 μM each. Further, various concentrations of individual peptides were used to record dose-dependent curves. After incubation for 6 h, ligand-induced changes in luciferase activity were measured by GloMax® 20/20 Luminometer (Promega) with Dual-Luciferase® Reporter Assay System Kit (Promega).
All values are expressed as mean ± SD. Multiple sequence alignment of sNPFR sequences was performed with ClustalX and embellished by LaTEX TexShade ([57]). Data of ligand-receptor assays were analyzed using nonlinear curve fitting (GraphPad Prism 6.0) to obtain activation curves and EC50 values. The mRNA levels of Sp-Vg and Sp-VgR gene were normalized against the internal control β-actin, and the relative expression was calculated using the 2^−ΔΔCt method. Statistical significance was determined using one-way ANOVA followed by Duncan's multiple range tests. All statistical analyses were performed using IBM SPSS Statistics 20.0. Pictures were drawn by GraphPad Prism 6.0 and modified with Adobe Photoshop CS5.

With `C[C@]12CC[C@@H]3c4ccc(O)cc4CC[C@H]3[C@@H]1CC[C@@H]2O` [E2, Estradiol], the “inhibition of spontaneous oocyte maturation” value with denuded oocytes was “partly inhibited the spontaneous maturation of the denuded oocytes”.

Regarding APPSMRLRF-NH2 [Sp-sNPF1], the EC50 at Sp-sNPFR was determined as 1.2 µM.

Regarding KDARTPALRLRF-NH2 [Sp-sNPF3], the EC50 on Sp-sNPFR was 8.5 µM.

Consider SMPTLRLRF-NH2 [Sp-sNPF2], for which the EC50 at Sp-sNPFR stood at 3.8 µM.
